Among the data in DBAASP are MIC values, retold here.

Structures are written as SMILES. Converted amounts (≈) assume the structure as drawn. Where only a bound is given, the exact number is not on record here.

Assay in all cases: ≥ marks a high value that may be exact or a test limit, other limits are often not marked, values filed in µg/mL are converted to µM
The test system of test [1] is Pseudomonas aeruginosa ATCC 10145.
The test system of test [2] is Staphylococcus epidermidis ATCC 14990.
The test system of test [3] is Escherichia coli D31.
The subject of test [4] is Staphylococcus aureus ATCC 27660.
Test [5] relates to Salmonella enterica subsp. enterica serovar Typhimurium ATCC 700931.
Test [6] relates to Acinetobacter baumannii ATCC 19606.
Test [7] has as its system Staphylococcus aureus VRSA10.
In test [8] the test system is Staphylococcus aureus NRS 1.
The test system of test [9] is Staphylococcus aureus VRSA1.
Test [10] has as its system Klebsiella pneumoniae ATCC 700603.
Test [11] relates to Pseudomonas aeruginosa ATCC 27853.
For test [12], the system named is Pseudomonas aeruginosa FADDI-PA070.
Test [13] has as its system Escherichia coli ATCC 25922.
Test [14] relates to Staphylococcus aureus ATCC 43300.
Test [15] deals with Staphylococcus aureus NRS 17.
In test [16] the test system is Klebsiella pneumoniae ATCC BAA-2146.
In test [17] the test system is Streptococcus pneumoniae ATCC 700677.
Test [18] relates to Pseudomonas aeruginosa ATCC 9027.
Test [19] relates to Staphylococcus aureus AB6538.
Test [20] relates to Staphylococcus aureus AB94004.
The test system of test [21] is Escherichia coli AB94012.
Test [22] deals with Staphylococcus aureus SH1000.
Test [23] relates to Enterococcus faecalis NCTC 12697.
Test [24] relates to Candida albicans NCTC 1467.
Test [25] has as its system Klebsiella pneumoniae ATCC 43816.
Test [26] has as its system Staphylococcus aureus NCTC 10788.
The test system of test [27] is Escherichia coli NCTC 10418.
For test [28], the system named is Staphylococcus aureus NCTC 12493.
The test system of test [29] is Candida albicans MDM8.
Test [30] deals with Enterobacter cloacae beta-12.
Test [31] deals with Micrococcus luteus A270.
Test [32] concerns Staphylococcus aureus ATCC 29213.
Test [33] relates to Serratia marcescens ATCC 4112.
The test system of test [34] is Escherichia coli SBS 363.
Test [35] has as its system Staphylococcus epidermidis ATCC 12228.
For test [36], the system named is Candida tropicalis IOC 4560.
Test [37] relates to Bacillus megaterium ATCC 10778.
The test system of test [38] is Klebsiella pneumoniae ATCC 13883.
In test [39] the test system is Staphylococcus aureus USA 300 LAC.

For `C[C@H](N)C(=O)N[C@@H](Cc1ccccc1)C(=O)N[C@@H](Cc1c[nH]c2ccccc12)C(=O)N[C@@H](CCCCN)C(=O)N[C@@H](CCCCN)C(=O)N[C@@H](Cc1ccccc1)C(=O)N[C@@H](Cc1ccccc1)C(=O)N[C@@H](CCCCN)C(=O)N[C@@H](CCCCN)C(=O)N[C@@H](Cc1ccccc1)C(=O)N[C@@H](Cc1ccccc1)C(=O)N[C@@H](CCCCN)C(=O)N[C@@H](CO)C(=O)N[C@@H](C)C(=O)N[C@@H](CCCCN)C(=O)N[C@@H](CCCCN)C(=O)N[C@@H](Cc1ccccc1)C(=O)NCC(=O)O` [AFWKKFFKKFFKSAKKFG], the MIC was determined as 1.88 µM (≈ 4.27 µg/mL) in [1]; 0.94 µM (≈ 2.13 µg/mL) in [2]; 1.88 µM (≈ 4.27 µg/mL) in test [3]; 1.88 µM (≈ 4.27 µg/mL) in test [4]; 1.88 µM (≈ 4.27 µg/mL) in test [5].
Consider `CC[C@H](C)[C@H](NC(=O)[C@@H](N)CC(C)C)C(=O)NCC(=O)N[C@@H](CC(C)C)C(=O)N[C@H](C(=O)N[C@@H](CO)C(=O)N[C@@H](CCCCN)C(=O)NCC(=O)N[C@H](C(=O)N[C@H]1CSSC[C@@H](C(=O)N[C@@H](CCCCN)C(=O)N[C@@H](CCCCN)C(=O)N[C@H](C(=O)N[C@@H](CC(C)C)C(=O)N[C@@H](CCCCN)C(=O)N[C@@H](CCC(N)=O)C(N)=O)C(C)C)NC(=O)[C@H](C(C)C)NC(=O)[C@H]([C@@H](C)O)NC(=O)[C@H](CCCCN)NC(=O)[C@H](C(C)C)NC(=O)[C@H](CC(C)C)NC(=O)[C@H](C(C)C)NC1=O)[C@@H](C)O)C(C)C` [LIGLVSKGTCVLVKTVCKKVLKQ], for which the minimal inhibitory concentration (MIC) was more than 9.6 µM in test [6]; 9.6 µM (≈ 23.6 µg/mL) in test [7]; 9.6 µM (≈ 23.6 µg/mL) in test [8]; 9.6 µM (≈ 23.6 µg/mL) in [9]; more than 9.6 µM in test [10]; more than 9.6 µM in [11]. The MIC in test [12] was 9.6 µM (≈ 23.6 µg/mL); in test [13], more than 9.6 µM; in [14] it was more than 9.6 µM; in test [15] it was 9.6 µM (≈ 23.6 µg/mL); in test [16], 9.6 µM (≈ 23.6 µg/mL); in test [17] it was 9.6 µM (≈ 23.6 µg/mL).
Turning to `CC[C@H](C)[C@H](NC(=O)[C@H](CO)NC(=O)[C@@H]1CCCN1C(=O)[C@H](CC(C)C)NC(=O)[C@@H](NC(=O)[C@H](CO)NC(=O)CNC(=O)[C@H](CC(C)C)NC(=O)[C@@H](NC(=O)[C@H](CO)NC(=O)CNC(=O)[C@H](CC(C)C)NC(=O)[C@H](CC(C)C)NC(=O)CNC(=O)[C@H](CC(C)C)NC(=O)[C@@H](N)Cc1ccccc1)C(C)C)C(C)C)C(=O)N[C@@H](Cc1ccccc1)C(=O)N[C@@H](CCCCN)C(N)=O` [FLGLLGSVLGSVLPSIFK], the MIC in [18] is more than 54.1 µM; in [19], 6.77 µM (≈ 12.5 µg/mL); in [11], more than 54.1 µM; in test [20], 6.77 µM (≈ 12.5 µg/mL); in test [13] it was more than 54.1 µM; in [21] it was not below 54.1 µM.
On to `CC(C)C[C@H](NC(=O)[C@H](CC(C)C)NC(=O)[C@H](CCCCN)NC(=O)[C@H](CC(C)C)NC(=O)[C@H](CC(C)C)NC(=O)[C@H](CCCCN)NC(=O)[C@H](CCCCN)NC(=O)[C@H](CC(C)C)NC(=O)[C@H](CC(C)C)NC(=O)[C@H](CCCCN)NC(=O)[C@H](CC(C)C)NC(=O)[C@H](CC(C)C)NC(=O)[C@@H](N)CCCCN)C(=O)NCC(N)=O` [KLLKLLKKLLKLLG], for which the MIC in [22] is not below 100 µM.
Take `CSCC[C@H](NC(=O)[C@H](CCC(=O)O)NC(=O)[C@H](CCCCN)NC(=O)[C@H](CC(C)C)NC(=O)[C@H](CCCCN)NC(=O)CNC(=O)[C@H](Cc1c[nH]c2ccccc12)NC(=O)[C@H](CC(C)C)NC(=O)[C@@H](N)CO)C(=O)N[C@@H](CC(C)C)C(=O)N[C@@H](C)C(=O)N[C@@H](CCCCN)C(=O)N[C@@H](C)C(=O)NCC(=O)N[C@@H](CCCCN)C(=O)N[C@@H](C)C(=O)N[C@H](C(=O)N[C@@H](C)C(=O)N[C@@H](CC(N)=O)C(=O)N[C@@H](C)C(=O)N[C@H](C(=O)N[C@@H](CC(N)=O)C(=O)NCC(=O)N[C@@H](CC(C)C)C(=O)N[C@@H](C)C(=O)N[C@@H](CC(N)=O)C(=O)N[C@@H](CCC(N)=O)C(N)=O)C(C)C)C(C)C` [SLWGKLKEMLAKAGKAVANAVNGLANQ]: the MIC was 32 µM (≈ 89 µg/mL) in [11]; 8 µM (≈ 22.3 µg/mL) in test [23]; 16 µM (≈ 44.5 µg/mL) in [24]; 8 µM (≈ 22.3 µg/mL) in test [25]; 8 µM (≈ 22.3 µg/mL) in [26]; 8 µM (≈ 22.3 µg/mL) in test [27]. Moreover, the MIC in test [28] was determined as 8 µM (≈ 22.3 µg/mL).
For `CC(C)C[C@H](NC(=O)[C@H](C)NC(=O)CNC(=O)[C@H](CC(C)C)NC(=O)[C@@H](N)Cc1ccccc1)C(=O)N[C@@H](Cc1c[nH]c2ccccc12)C(=O)N[C@@H](CC(N)=O)C(=O)N[C@H](C(=O)N[C@@H](CCCCN)C(=O)N[C@@H](CCCCN)C(=O)N[C@@H](CO)C(=O)N[C@H](C(=O)N[C@@H](Cc1ccccc1)C(N)=O)C(C)C)C(C)C` [FLGALWNVKKSVF], the MIC in [29] was not below 50 µM; in test [30], not below 50 µM; in test [31] it was not below 50 µM; in test [32], more than 50 µM; in [33], not below 50 µM; in test [34] it was not below 50 µM. Moreover, the values for the MIC in test [35], in test [36] and in test [37] were more than 50 µM, not below 50 µM and not below 50 µM, respectively.
For the molecule `CC[C@H](C)[C@H](NC(=O)[C@H](CCCCN)NC(=O)[C@H](CCCN=C(N)N)NC(=O)[C@H](CC(C)C)NC(=O)[C@H](Cc1c[nH]c2ccccc12)NC(=O)[C@H](Cc1c[nH]c2ccccc12)NC(=O)[C@@H](N)Cc1c[nH]c2ccccc12)C(=O)N[C@@H](Cc1c[nH]c2ccccc12)C(N)=O` [WWWLRKIW], the figures for the MIC in test [38], in test [13] and in test [39] were 12.5 µM (≈ 15.9 µg/mL), 8.8 µM (≈ 11.2 µg/mL) and 3.1 µM (≈ 3.94 µg/mL), respectively.
